According to patent publication US20150135343A1, “GTP Sensors” (The Board of Regents of the University of Texas System, priority 2012, published 2015):

Key:
[1] = target: T1, AF/FA GTP sensor (mAmetrine 1.1 and E. coli FeoB-cpYFP fusion) 11A variant 12, P12G, GNSGKTT (SEQ ID NO: 7) (Escherichia coli, UniProt P33650, P12G); experiment: GTP binding analysis, fluorescence titration, sensor 12
T1 construct: modified pET32, His-tag/NiNTA, E. coli BL21(DE3)
Protocol: (§1) Expression and purification: The FA/AF11A protein construct in a modified pET32 vector was used to transform BL21 (DE3) cells. Protein expression was induced with IPTG at a final concentration of 1 mM when the cell OD600 reached 0.6-0.8. Cells were grown for a further 12-14 hrs at 30° C. overnight. Cells were harvested in the morning, suspended in 50 mM TrisHCl, pH 8.3, 2 mM NaCl, 0.1% (v/v) Tween-20, 10 mM imidazole, 1 mM PMSF (lysis buffer), and lysed by sonication. Cell debris was removed by spinning at 17000 rpm for 30 minutes at 4° C. in a Sorvall RC-5C centrifuge equipped with a SS-34 rotor. The lysate, which is bright yellow, was applied to a NiNTA column equilibrated with the same lysis buffer. The loaded NiNTA column was washed with 5 volumes of the lysis buffer followed by 2-volumes of 50 mM TrisHCl, pH8.3, 400 mM NaCl, 50 mM imidazole. Then the protein was eluted in 2 volumes of 50 mM TrisHCl, pH 7.5, 100 mM NaCl, 300 mM imidazole. […] Protein concentration was determined with a BCA assay-kit from Invitrogen using bovine serum albumin for the calibration curve.
(§2) Fluorescent emission spectra of FA/AF11A were obtained at ˜1 μM in binding buffer and 3.0 ml in a quartz cuvette. […] Titrations with GTP, GDP, and ATP were carried out in a BioTeK plate reader on 96-well fluorescence plates from Whatman. […]

[2] = target: T2, AF/FA GTP sensor (mAmetrine 1.1 and E. coli FeoB-cpYFP fusion) 11A variant 1214, P12G+S14A, GNAGKTT (SEQ ID NO: 8) (Escherichia coli, UniProt P33650, P12G/S14A); experiment: GTP binding analysis, fluorescence titration, sensor 1214
T2 construct: modified pET32, His-tag/NiNTA, E. coli BL21(DE3)
Protocol: as §1, §2

[3] = target: T3, AF/FA GTP sensor (mAmetrine 1.1 and E. coli FeoB-cpYFP fusion) 11A variant 1217, GNSGKST (SEQ ID NO: 9) (Escherichia coli, UniProt P33650, P12G/T17S); experiment: GTP binding analysis, fluorescence titration, sensor 1217
T3 construct: modified pET32, His-tag/NiNTA, E. coli BL21(DE3)
Protocol: as §1, §2

[4] = target: T4, AF/FA GTP sensor (mAmetrine 1.1 and E. coli FeoB-cpYFP fusion) 11A variant Triple, GNAGKST (SEQ ID NO: 10) (Escherichia coli, UniProt P33650, P12G/S14A/T17S); experiment: GTP binding analysis, fluorescence titration, sensor Triple
T4 construct: modified pET32, His-tag/NiNTA, E. coli BL21(DE3)
Protocol: as §1, §2

[5] = system: FeoB, G-protein domain of FeoB protein from Escherichia coli, SEQ ID NO:3; settings: cited from earlier work
[6] = system: HEK293 cells; experiment: In vivo validation: ratiometric imaging of transfected HEK293 cells with or without MPA; assay type: cell-based; settings: 20 μM MPA, HEK293 cells with AF-Triple sensor
Protocol: (§3) AF/FA GTP sensors were subcloned into a pGW1 mammalian cell expression vector with a cytomegalovirus (CMV) promoter. HEK293 cells were transfected with the plasmid DNA using the GenJet (SignaGen) transfection reagent according to the manufacturer's instructions. Cells were allowed to grow for ˜24 hrs before being treated with mycophenolic acid (MPA), which inhibits GTP synthesis. Cells were imaged 20 hrs after drug administration. All cell cultures were carried out with DMEM containing 10% FBS and penicillin/streptomycin and grown at 37° C. in an atmosphere with 5% CO2. Passage number of cells was less than 30 for all experiments.
(§4) Imaging: Cells were imaged in a LabTek 8-chamber 1.5 coverslip-bottom culture-cum-imaging wells. Nikon Eclipse inverted epifluorescence microscope with Sedat Quad 89000 (Chroma Tech) filter along with Sutter instruments automated filter wheel controls was used for all imaging purposes. To ensure adequate signal, 2×2 binning was used. […]
(§5) Images were obtained individually without using the Nikon NIS software ratiometric collection mode. All image quantitative analyses were carried out with the public domain ImageJ (http://rsbweb.nih.gov/ij/) in conjunction with MS Excel and Origin 7. […] Then the ratios of the two intensities were calculated along with the relevant statistics.

[7] = system: HEK293 cells transfected with AF-AAA GTP sensor; experiment: MPA treatment of HEK293 cells expressing AF-AAA sensor, ratiometric imaging; assay type: cell-based; settings: 20 μM MPA, 20 hrs; GTP-insensitive control sensor
Protocol: as §3, §4, §5

[8] = system: HEK293 cells transfected with AF-Triple GTP sensor; experiment: MPA treatment of HEK293 cells expressing AF-Triple sensor, ratiometric imaging; assay type: cell-based; settings: 20 μM MPA
Protocol: as §3, §4, §5

[9] = target: T5, 5a5a-GTP sensor (E. coli FeoB-cpYFP fusion), 5a5a-WT, SEQ ID NO:14 (Escherichia coli, UniProt P33650, E42P/INS38[…]); experiment: Effective dissociation constant (Keff) determination, 5a5a-WT; assay type: binding; settings: FIG. 7 and FIG. 8
T5 construct: made in house
Text: DNA encoding a cpYFP was inserted into the DNA encoding residues 35-40 of the FeoB G-protein domain (residues 1-260). Six insertion sites—spaced one codon apart—and 4 combinations of linker lengths between the N- and C-termini of the cpYFP and FeoB genes were used to construct 24 different fusion proteins. Nomenclature followed the form “FY1a-1a”, were the number designates the cpYFP insertion site, with “1” corresponding to insertion after FeoB residue 35 and “6” to insertion after residue 40, and where an “a” after the number indicates the presence of a ser-ala-gly or gly-thr linker at, respectively, the N- or C-terminus of the cpYFP.
The fluorescence from the GTP insensitive protein provided a way to normalize the GTP-sensitive fluorescent signal. […] The ratio of the fluorescence at these two excitation wavelengths is therefore internally normalized for changes in sensor expression levels. In addition, using a single FP provides certain advantages over a 2-FP sensor: (1.) A single FP sensor still generates a ratiometric signal because the binding of GTP causes a […] in fluorescence when excited at longer wavelengths (˜500 nm) but a […] in when excited at shorter (˜400 nm) wavelengths. […] (3.) The change in fluorescence ratio varies from 2-6 fold, depending on pH. […]

Work on `Nc1nc2c(ncn2[C@@H]2O[C@H](COP(=O)(O)OP(=O)(O)O)[C@@H](O)[C@H]2O)c(=O)[nH]1` [GDP] yielded a Kd [1] of 382 µM, a Kd [2] of 525 µM and a Kd [3] of about 650 µM. For the same compound, the Kd [4] was about 1000 µM and the “rate of GDP release” value ([5]; 35° C., too fast to measure by stop-flow methods, estimated) was over 1000 s⁻¹.

In the case of `Nc1nc2c(ncn2[C@@H]2O[C@H](COP(=O)(O)OP(=O)(O)OP(=O)(O)O)[C@@H](O)[C@H]2O)c(=O)[nH]1` [GTP, guanosine triphosphate], the Kd [1] is reported as 85 µM, the Kd [2] is reported as 177 µM and the Kd [3] is reported as 275 µM. For the same compound, the Kd [4] was 517 µM, the “off-rate (GTP)” value ([5]; 35° C.) was 12 s⁻¹ and the “on-rate for GTP” value ([5]; 35° C.) was 800000 M⁻¹ s⁻¹. The “rate of GTP hydrolysis” value [5] was 0.0015 s⁻¹ and the “rate of GTP hydrolysis, fold slower than the rate of GTP release” value ([5]; ratio) was “about 5000 fold”.

For `COc1c(C)c2c(c(O)c1C/C=C(\C)CCC(=O)O)C(=O)OC2` [MPA, mycophenolic acid], the “cpYFP (green) signal of cells vs untreated” value [6] was “brighter green hue”, the “effect of MPA treatment on ratiometric signal” value [7] was “no effect” and the “effect of MPA treatment on ratiometric signal (distribution of ratio and average value)” value ([8]; 20 hrs, p-value of 0.005) was “distinct difference in the distribution of the ratio as well as the average value”. The “GTP-sensitive signal (cpYFP green) after MPA treatment” value ([8]; signal inversely related to GTP concentration) was “brighter green hue than those untreated”.

For `Nc1nc2c(ncn2[C@H]2C[C@H](O)[C@@H](COP(=O)(O)OP(=O)(O)OP(=O)(O)O)O2)c(=O)[nH]1` [dGTP], the “binding of dGTP relative to GTP” value [9] was “as well as, if not slightly better than GTP itself”.
